Data reported in publication PMC11310081, “Deep-learning-enabled antibiotic discovery through molecular de-extinction” (Nature Biomedical Engineering, 2024).
≈ marks a conversion by molar mass, not a printed value. Peptide text beside a SMILES is read from it.

What was measured:
E. coli AIC221 = assay type: cell-based, Escherichia coli; conditions: AIC221, 20 h
Summary of the method: (§1)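 Optical density at 600 nm served as the growth read-out after broth microdilution exposure to peptides spanning 1–64 μmol l^−1. Assays used logarithmic-phase bacteria and were run as three biological replicates.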

E. coli ATCC 11775 = assay type: cell-based, Escherichia coli; conditions: ATCC 11775, 20 h
Summary of the method: as §1

S. aureus ATCC 12600 = assay type: cell-based, Staphylococcus aureus; conditions: ATCC 12600, 20 h
Description: (§2) The following Gram-negative bacteria were used in our study: A. baumannii ATCC 19606, E. coli ATCC 11775, E. coli AIC221 (E. coli MG1655 phnE_2::FRT), E. coli AIC222 (E. coli MG1655 pmrA53 phnE_2::FRT (colistin resistant)), K. pneumoniae ATCC 13883, P. aeruginosa PAO1 and P. aeruginosa PA14. The following Gram-positive bacteria were also used in our study: S. aureus ATCC 12600, S. aureus ATCC BAA-1556 (methicillin-resistant strain), E. faecalis ATCC 700802 (vancomycin-resistant strain) and E. faecium ATCC 700221 (vancomycin-resistant strain). Bacteria were grown from frozen stocks and plated on Luria–Bertani (LB) or Pseudomonas isolation agar plates (P. aeruginosa strains) and incubated overnight at 37 °C. After the incubation period, a single colony was transferred to 5 ml of LB medium, and cultures were incubated overnight (16 h) at 37 °C. The following day, an inoculum was prepared by diluting the overnight cultures 1:100 in 5 ml of the respective media and incubating them at 37 °C until bacteria reached logarithmic phase (OD600 = 0.3–0.5).
(§3) The in vitro antimicrobial activity of the peptides was assessed by using the broth microdilution assay. […] Aqueous solutions of the peptides were added to the plate at concentrations ranging from 1 to 64 μmol l^−1. […] The optical density of the plates was measured at 600 nm using a spectrophotometer. All assays were done as three biological replicates.

[1] = test system: S. aureus ATCC BAA-1556 (methicillin-resistant strain); assay type: cell-based, Staphylococcus aureus; conditions: ATCC BAA-1556, 20 h
Description: as §2, §3

[2] = test system: E. faecalis ATCC 700802 (vancomycin-resistant strain); assay type: cell-based, Enterococcus faecalis; conditions: ATCC 700802, 20 h
Description: as §2
The in vitro antimicrobial activity of the peptides was assessed by using the broth microdilution assay. […] Aqueous solutions of the peptides were added to the plate at concentrations ranging from 1 to 64 μmol l^−1. […] The optical density of the plates was measured at 600 nm using a spectrophotometer. […]

[3] = test system: E. faecium ATCC 700221 (vancomycin-resistant strain); assay type: cell-based, Enterococcus faecium; conditions: ATCC 700221, 20 h
Summary of the method: as §1

[4] = test system: 11 clinically relevant bacterial pathogens; assay type: cell-based; conditions: for Active or Inactive: Supplementary Dataset 2, against the 11 pathogens tested; for MIC (lowest MIC value in the antimicrobial activity assays): Supplementary Table 17, lowest MIC among the strains tested
Summary of the method: as §1

K. pneumoniae ATCC 13883 = assay type: cell-based, Klebsiella pneumoniae; conditions: ATCC 13883, 20 h
Summary of the method: as §1

CC[C@H](C)[C@H](N)C(=O)N[C@@H](Cc1ccccc1)C(=O)N[C@@H](CC(C)C)C(=O)N[C@@H](Cc1c[nH]cn1)C(=O)N[C@@H](CC(C)C)C(=O)N[C@@H](CCCCN)C(=O)N[C@H](C(=O)N[C@@H](CC(C)C)C(=O)N[C@@H](CCCCN)C(=O)N[C@H](C(=O)N[C@H](C(=O)N[C@@H](CCCNC(=N)N)C(=O)N[C@@H](CC(C)C)C(=O)N[C@@H](CC(C)C)C(=O)O)[C@@H](C)CC)[C@@H](C)CC)[C@@H](C)CC [Elephasin-2] (H-IFLHLKILKIIRLL-OH; N-terminus and C-terminus assumed)
Minimal inhibitory concentration, E. coli AIC221 (E. coli AIC221): 2 µM (≈ 3.47 µg/mL) | Minimal inhibitory concentration, E. coli ATCC11775 (E. coli ATCC 11775): 16 µM (≈ 27.7 µg/mL) | Minimal inhibitory concentration, S. aureus ATCC12600 (S. aureus ATCC 12600): 1 µM (≈ 1.73 µg/mL) | Minimal inhibitory concentration, S. aureus ATCC BAA-1556-MRSA [1]: 1 µM (≈ 1.73 µg/mL) | Minimal inhibitory concentration, E. faecalis ATCC700802-VRE [2]: 8 µM (≈ 13.9 µg/mL) | Minimal inhibitory concentration, E. faecium ATCC700221-VRE [3]: 1 µM (≈ 1.73 µg/mL) | Active or Inactive [4]: Active | MIC (lowest MIC value in the antimicrobial activity assays) [4]: 1 µM (≈ 1.73 µg/mL)

CC[C@H](C)[C@H](NC(=O)[C@H](CO)NC(=O)[C@H](CCCNC(=N)N)NC(=O)[C@H](C)NC(=O)[C@H](Cc1c[nH]cn1)NC(=O)[C@H](CC(C)C)NC(=O)[C@H](CS)NC(=O)[C@H](C)NC(=O)[C@@H](N)CCCNC(=N)N)C(=O)N[C@@H](C)C(=O)N[C@@H](CCCNC(=N)N)C(=O)N[C@@H](CC(C)C)C(=O)N[C@@H](Cc1c[nH]cn1)C(=O)N[C@@H](CCCCN)C(=O)N[C@@H](CCCNC(=N)N)C(=O)N[C@@H](Cc1c[nH]c2ccccc12)C(=O)N[C@@H](CCCNC(=N)N)C(=O)N1CCC[C@H]1C(=O)N[C@H](C(=O)N[C@@H](Cc1c[nH]cn1)C(=O)N[C@@H](CCC(N)=O)C(=O)NCC(=O)N[C@@H](CC(C)C)C(=O)NCC(=O)N[C@@H](CC(C)C)C(=O)N[C@@H](CCCCN)C(=O)O)C(C)C [Mammuthusin-2] (H-RACLHARSIARLHKRWRPVHQGLGLK-OH; N-terminus and C-terminus assumed)
Active or Inactive [4]: Active | MIC (lowest MIC value in the antimicrobial activity assays) [4]: 32 µM (≈ 97.9 µg/mL)

CC[C@H](C)[C@H](NC(=O)[C@@H](N)CC(C)C)C(=O)N[C@H](C(=O)N[C@@H](CS)C(=O)N[C@@H](Cc1ccccc1)C(=O)N[C@@H](Cc1ccccc1)C(=O)N[C@@H](CCCNC(=N)N)C(=O)N[C@@H](CCC(N)=O)C(=O)N[C@@H](CC(C)C)C(=O)N[C@@H](CCCCN)C(=O)N[C@@H](Cc1ccccc1)C(=O)N[C@@H](Cc1c[nH]cn1)C(=O)N[C@@H](Cc1ccccc1)C(=O)O)C(C)C [Megalocerin-1] (H-LIVCFFRQLKFHF-OH; N-terminus and C-terminus assumed)
Minimal inhibitory concentration, K. pneumoniae ATCC133883 (K. pneumoniae ATCC 13883): 64 µM (≈ 109 µg/mL) | Minimal inhibitory concentration, E. faecium ATCC700221-VRE [3]: 8 µM (≈ 13.6 µg/mL) | Active or Inactive [4]: Active | MIC (lowest MIC value in the antimicrobial activity assays) [4]: 8 µM (≈ 13.6 µg/mL)

CC(C)C[C@H](NC(=O)CNC(=O)[C@H](CCCNC(=N)N)NC(=O)[C@H](CCCCN)NC(=O)[C@H](CCCNC(=N)N)NC(=O)[C@@H](N)CCCCN)C(=O)N[C@@H](CCCCN)C(=O)N[C@@H](CC(C)C)C(=O)N[C@@H](C)C(=O)N[C@H](C(=O)N[C@@H](C)C(=O)N[C@@H](CC(C)C)C(=O)N[C@@H](CO)C(=O)N[C@@H](CC(C)C)C(=O)N[C@@H](CC(N)=O)C(=O)N[C@@H](CC(N)=O)C(=O)N[C@@H](CCCCN)C(=O)N[C@@H](Cc1ccccc1)C(=O)O)[C@@H](C)O [Mylodonin-2] (H-KRKRGLKLATALSLNNKF-OH; N-terminus and C-terminus assumed)
Active or Inactive [4]: Active
